Patent publication US20140135359A1, “METHODS OF DESIGNING, PREPARING, AND USING NOVEL PROTONOPHORES” (priority 2012, published 2014)

Legend:
[1] = system: isolated rat liver mitochondria; assay: Residual functional capacity / inhibitory effect on ADP-stimulated (state 3) oxygen consumption; assay type: biochemical; settings: for Residual capacity (%): functional capacity (state 3 minus state 4 rate) as % of vehicle-treated mitochondria
[2] = system: isolated rat liver mitochondria; assay: Uncoupling activity: increase in basal (state 4) oxygen consumption by oxygraphy; assay type: biochemical; settings: for Uncoupling (%): increase in basal (state 4) oxygen consumption as % of average ADP-stimulated (state 3) rate in vehicle-treated mitochondria
[3] = system: differentiated C2C12 skeletal muscle cells; assay: 3H-deoxyglucose uptake in C2C12 myotubes; assay type: cell-based, murine; settings: 18 h
Protocol: 2.3 ^3H-deoxyglucose uptake in C2C12 myotubes: Cell culture and the ^3H-deoxyglucose uptake assay were performed as previously described [34B, 35B, 37B]. Briefly, C2C12 murine skeletal myoblasts (American Type Culture Collection; Manassas, Va.) were cultured under standard conditions in 12-well plates. Cells were proliferated to 80% confluence in high-glucose Dulbecco's modified Eagle's medium (DMEM; Wisent; St-Bruno, QC) supplemented with 10% fetal bovine serum (FBS; Wisent), 10% horse serum (HS), and antibiotics. Differentiation into multinucleated myotubes was then promoted with DMEM supplemented with 2% HS and antibiotics. All uptake assays were performed on 7-day differentiated cells, and treatments were timed accordingly. […] DMSO concentration was fixed at 0.1% for all conditions. Cells were routinely inspected for abnormal morphology by phase-contrast microscopy at the conclusion of the treatment period. […] Cells were then washed twice in glucose-free KPB at 37° C. before incubation for exactly 10 min at 37° C. in glucose-free KPB containing 0.5 μCi/ml 2-deoxy-D-[1-^3H]glucose (Amersham Biosciences; Buckinghamshire, UK). Cells were then placed on ice and immediately washed three times with ice-cold KPB. Cells were inspected for monolayer detachment and lysed in 0.1 N NaOH with scraping. […] Three independent experiments of 18 h treatment duration were performed for each of the selected test compounds, with three replicates per condition per experiment. Vehicle-control and 50 μM 2,4-dinitrophenol conditions were included on every plate. Some compounds were also tested at 50 μM under the following conditions: a 15 h treatment with vehicle only followed by a 3 h treatment with the test compound; a 15 h treatment with the test compound followed by a 3 h repeat treatment.
Protocol for ^3H-deoxyglucose uptake assay in C2C12 or other skeletal muscle cells; C2C12 murine skeletal myoblasts (American Type Culture Collection; Manassas, Va.) may be cultured under standard conditions in 12-well plates. Cells may be proliferated to 80% confluence in high-glucose Dulbecco's modified Eagle's medium (DMEM) supplemented with 10% fetal bovine serum (FBS), 10% horse serum (HS), and antibiotics. Differentiation into multinucleated myotubes may be then promoted with DMEM supplemented with 2% HS and antibiotics. All uptake assays may be performed on 7-day differentiated cells, and treatment onset may be timed accordingly. Cells may be treated with reference substances (such as metformin (100 or 400 μM), phenformin (100 μM), or 2,4-dinitrophenol 10-100 μM), compounds described herein, or vehicle (DMSO) in complete differentiation medium. DMSO concentration may be fixed at 0.1% for all conditions. Cells may be routinely inspected for abnormal morphology by phase-contrast microscopy at the conclusion of the treatment period. […] Cells may be then washed twice in glucose-free KPB at 37° C. before incubation for exactly 10 min at 37° C. in glucose-free KPB containing 0.5 μCi/ml 2-deoxy-D-[1-3H]glucose (Amersham Biosciences; Buckinghamshire, UK). Cells may be then placed on ice and immediately washed three times with ice-cold KPB. Cells may be inspected for monolayer detachment and lysed in 0.1 N NaOH with scraping. […] Three or more independent experiments of 18 hours treatment duration may be performed for each test compound, with three or more replicates per condition per experiment. Vehicle-control and 2,4-dinitrophenol conditions may be included on every plate for the purpose of standardizing.

[4] = system: H4IIE hepatocytes; assay: Lactate dehydrogenase (LDH) release, cellular viability; assay type: cell-based, murine; settings: 25 μM, 16 h
Protocol: 2.4 Glucose-6-phosphatase activity in H4IIE hepatocytes: H4IIE murine hepatocytes (American Type Culture Collection) were cultured to confluence in 12-well plates in DMEM supplemented with 10% FBS and antibiotics. […] Effects of test compounds on cellular viability were assessed by measuring the release of lactate dehydrogenase (LDH) into the culture medium at the end of a 16 h treatment using a commercial kit (Cytotoxicity Detection Kit; Roche Diagnostics; Laval, QC) as per the manufacturer's instructions; LDH release was expressed as % of total (medium+lysate) LDH content for each well. […] Glucose-6-phosphatase (G6Pase) activity was assessed by measuring the rate of glucose formation in the presence of a non-limiting amount of glucose-6-phosphate (G6P), as done by others [39B, 40B]. Glucose production was measured with a commercial glucose assay kit (AutoKit Glucose; Wako Diagnostics; Richmond, Va.). […] Absorbance of the supernatant was measured at 505 nm at ambient temperature and glucose concentration was calculated from a standard curve performed in parallel. Control wells without exogenous G6P were included on each plate for each treatment condition and activity measured from these wells was subtracted from activity measured in the presence of exogenous G6P. G6Pase activity calculated in this way was then expressed normalized to protein content on a well-by-well basis. […]

For `O=[N+]([O-])c1ccc(O)c([N+](=O)[O-])c1` [2,4-dinitrophenol], the “Inhibitory effect (%)” value ([1]; test conc. 25 μM) was 0%, the “Residual capacity (%)” value ([1]; test conc. 25 μM) was 14 ± 6% and the “Inhibitory effect (%)” value ([1]; test conc. 100 μM) was 0%. For the same molecule, the “Residual capacity (%)” value ([1]; test conc. 100 μM) was 0 ± 0%, the uncoupling activity ([2]; 50 μM in 0.1% DMSO (FIG. 19)) was “increased basal oxygen consumption above the level of ADP-stimulated consumption” and the measured uncoupling activity ([2]; 100 μM) was 143%. The “slope of the linear portion of the concentration-to-activity relationship” value ([2]; dose-escalation, logarithmic scales) was 0.89, the EC50 ([2]; dose-escalation, read-out: U50 (concentration at which 50% uncoupling is induced)) was roughly 10 µM and the “Uncoupling (%)” value ([2]; test conc. 25 μM) was 127 ± 11%. For the same molecule, the “Uncoupling (%)” value ([2]; test conc. 100 μM) was 143 ± 5%, the “increase in basal glucose uptake” value ([3]; 25 μM) was 66% and the “increase in basal glucose uptake” value ([3]; 50 μM) was 119%. For the same molecule, the “increase in basal glucose uptake” value ([3]; 100 μM) was 169% and the “release of lactate dehydrogenase” value [4] was “comparable to that of vehicle-treated cells”.
